# Reference: patent publication US7655392B2, “Quenching methods for red blood cell inactivation process” (priority 2004, dated 2010)
# Several values for one entry are separate records, joined by “and”; a condition that tells them apart may be missing. Identical values can stand only once.
# Experiments:
# [1] = system: Human Leukocyte Genomic DNA; test: PIC-1 adduct frequency on leukocyte genomic DNA (14C-labelled PIC-1); type: biochemical; conditions: 20 h RT
# Source text: The quenching methods of the invention can also be compared to existing methods by determining the level of modification of nucleic acids in a sample. Typically, a red blood cell composition may contain leukocytes, and the nucleic acid from the leukocytes can be isolated. A pathogen inactivating compound having a radioactive isotope that, upon reaction of the compound with nucleic acid, will remain bound to the nucleic acid. This can be used to assess the amount of compound reacted with the nucleic acid for a variety of quenching methods, and provides a measure that can be directly correlated to expected leukocyte inactivation. The number of adducts formed per 1,000 nucleic acid base pairs can be used as a model to assess the expected impact of the various methods on pathogen inactivation. Alternatively, a suitable amount of a pathogen can be added to a red blood cell composition and the nucleic acid of the pathogen can be isolated after treatment. However, in this case the sample needs to be leukoreduced such that the levels of any residual leukocytes will not interfere with the measurement of pathogen nucleic acid.
# The PIC-1 used included radiolabeled PIC-1, where the reactive group included a ^14C label (ViTrax, Inc., Placentia, Calif.). The specific activity of the PIC-1 used was […]. All samples were incubated at room temperature for 20 hours. After the incubation, 20 mL of RBC were diluted with a 20 mL volume of PBS and 20 mL of the mixture were added to each of two tubes containing 10 mL of Ficoll. The suspension was then centrifuged at 400×g for 30 minutes. The white blood cell portion was separated and the centrifuge step repeated after adding another 20 mL of PBS. The pellets obtained were combined and the combined pellet was resuspended in 5 mL Lysis buffer (100 mM NaCl, 10 mM Tris HCl, 25 mM EDTA, 5% SDS, 0.1 mg/mL Proteinase K, Sigma, St. Louis, Mo.) and was incubated at 50° C. for at least two hours. The resulting solution was then extracted with 5 mL of phenol:chloroform:isoamyl alcohol […], followed by 5 mL of chloroform, and then 5 mL of ether. The genomic DNA was isolated in the aqueous layer and precipitated by addition of 0.5 mL of 3 M NaOAc, 10 mL of 100% ethanol, followed by incubation of the final mixture in a dry ice/ethanol bath. The DNA was isolated by centrifugation at 6,000×g for 10′. The supernatant was removed, and the pellet air-dried and resuspended in 1 mL of TE buffer (100 mM Tris HCl, 1 mM EDTA, pH=7.4) The amount of DNA isolated was quantified by UV absorption at 260 nm and the amount of PIC-1 adducts was quantified by liquid scintillation counting (Perkin Elmer-Wallac, Winspectral 1414 Liquid Scintillation Counter, Shelton, Conn.) of the solution of DNA, using the specific activity of the PIC-1 to assess the molar ratio of PIC-1 to DNA base pairs. […] Glutathione is indicated as “GSH” and cysteine as “Cys” in the table, as well as elsewhere herein. The determination of adduct frequency was used as a surrogate measurement for the inactivation of leukocytes. It is known that under the standard pathogen inactivation conditions, leukocytes are inactivated to the level of detection of a limiting dilution assay, which corresponds to 5.3 log of inactivation. The mechanism of inactivation is through formation of adducts on the genomic nucleic acids. […] Similar studies could be done with a suitable pathogen using leukoreduced red blood cells in order to assess the binding to the pathogen nucleic acid under various conditions.
# leukocytes = conditions: standard pathogen inactivation conditions; cited from earlier work
# [2] = 20 mM GSH neutralized with 2 eq, 0.2 mM PIC-1 10 min later
# [3] = 20 mM each neut. GSH (2 eq) and Cys (1 eq), 0.2 mM PIC-1 10 min later
smiles,measurement,setting,value
O=C(CCNc1c2ccccc2nc2ccccc12)OCCN(CCCl)CCCl [PIC-1],Adduct frequency (average number of base pairs between adducts),"[1]; 0.2 mM PIC-1, 2 mM acidic GSH",44 and 29
same,Adducts per kbp,"[1]; 0.2 mM PIC-1, 2 mM acidic GSH",23 and 34
same,Adduct frequency (average number of base pairs between adducts),"[1]; 0.2 mM PIC-1, no quencher",36 and 35
same,Adducts per kbp,"[1]; 0.2 mM PIC-1, no quencher",28
same,Adduct frequency (average number of base pairs between adducts),[1]; [2],27 and 28
same,Adducts per kbp,[1]; [2],37 and 36
same,Adduct frequency (average number of base pairs between adducts),[1]; [3],33
same,Adducts per kbp,[1]; [3],30
same,leukocyte inactivation (level of detection of limiting dilution assay),leukocytes,5.3 log
